Experiments:
[1] = target: T1, M3 muscarinic receptor subtype (hM3) (Homo sapiens, UniProt P20309); assay: Radioligand binding assay ([3H]-NMS displacement); conditions: tested in this or a similar assay
T1 construct: expressed in transfected cells
Method: CHO cell lines stably expressing cloned human hM1, hM2, hM3 and hM4 muscarinic receptor subtypes, respectively, were grown to near confluency in medium consisting of HAM's F-12 supplemented with 10% FBS and 250 μg/mL Geneticin. The cells were grown in a 5% CO2, 37° C. incubator and lifted with 2 mM EDTA in dPBS. Cells were collected by 5 minute centrifugation at 650×g, and cell pellets were either stored frozen at −80° C. or membranes were prepared immediately. For membrane preparation, cell pellets were resuspended in lysis buffer and homogenized with a Polytron PT-2100 tissue disrupter (Kinematica AG; 20 seconds×2 bursts). Crude membranes were centrifuged at 40,000×g for 15 minutes at 4° C. […] The protein concentration of the membrane suspension was determined by the method described in Lowry, O. et al., Journal of Biochemistry 193:265 (1951). […]
Radioligand binding assays were performed in 96-well microtiter plates in a total assay volume of 100 μL. […] Filter plates were rinsed three times with wash buffer (10 mM HEPES) to remove unbound radioactivity. […] The plates were then counted in a PerkinElmer Topcount liquid scintillation counter (PerkinElmer Inc., Wellesley, Mass.). Binding data were analyzed by nonlinear regression analysis with the GraphPad Prism Software package (GraphPad Software, Inc., San Diego, Calif.) using the one-site competition model. […]

[2] = Dynamic moisture sorption assessment; format: physicochemical
Method: A dynamic moisture sorption (DMS) assessment (also known as a moisture sorption-desorption profile) was performed for samples of the crystalline monopropionate salt using a VTI atmospheric microbalance, SGA-100 system (VTI Corp., Hialeah, Fla. 33016). A sample size of approximately 10 mg was used and the humidity was set at the ambient value at the start of the analysis. A typical DMS analysis consisted of three scans: ambient to 2% relative humidity (RH), 2% RH to 90% RH, 90% RH to 5% RH at a scan rate of 5% RH/step. The mass was measured every two minutes and the RH was changed to the next value (+/−5% RH) when the mass of the sample was stable to within 0.01% for 5 consecutive points.

Thermal analysis (DSC) = format: physicochemical; conditions: DSC trace
Method: Differential scanning calorimetry (DSC) was performed using a TA Instruments Model Q-10 module with a Thermal Analyst controller. Data were collected and analyzed using TA Instruments Thermal Solutions software. A sample of about 1 mg was accurately weighed into an aluminum pan with lid. The sample was evaluated using a linear heating ramp of 10° C./min from ambient temperature to approximately 300° C. The DSC cell was purged with dry nitrogen during use.

T1 sequence (P20309 whole entry): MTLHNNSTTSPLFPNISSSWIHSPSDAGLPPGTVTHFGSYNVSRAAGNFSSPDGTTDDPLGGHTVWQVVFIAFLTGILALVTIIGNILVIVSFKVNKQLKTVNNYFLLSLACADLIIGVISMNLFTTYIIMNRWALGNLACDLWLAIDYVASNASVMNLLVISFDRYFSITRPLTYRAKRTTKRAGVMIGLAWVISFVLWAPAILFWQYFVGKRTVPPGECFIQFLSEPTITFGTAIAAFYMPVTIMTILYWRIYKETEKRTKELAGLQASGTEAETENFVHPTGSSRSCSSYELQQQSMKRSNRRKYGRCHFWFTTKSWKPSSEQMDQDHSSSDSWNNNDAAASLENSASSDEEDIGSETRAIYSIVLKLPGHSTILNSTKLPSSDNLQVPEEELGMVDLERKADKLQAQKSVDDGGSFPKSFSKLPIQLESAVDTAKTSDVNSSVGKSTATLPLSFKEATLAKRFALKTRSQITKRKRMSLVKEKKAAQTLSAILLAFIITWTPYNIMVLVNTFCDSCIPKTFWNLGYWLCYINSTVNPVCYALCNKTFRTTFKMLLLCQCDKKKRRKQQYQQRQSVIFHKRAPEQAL

Structure (SMILES) | Ki [1] | hygroscopicity (sorption/desorption profile) ([2]; DMS trace) | weight gain ([2]; humidity range of 40-70% RH, micronized material) | weight gain ([2]; humidity range of 40-70% RH, unmicronized) | weight gain ([2]; humidity range of 40-75% RH) | thermal stability (Thermal analysis (DSC))
O=C(Nc1ccccc1-c1ccccc1)OC1CCN(CCCN2CCN(CCCNCc3ccc(O)cc3)C2=O)CC1 [Example 1, Biphenyl-2-ylcarbamic Acid 1-(3-{3-[3-(4-Hydroxybenzylamino)propyl]-2-oxoimidazolidin-1-yl}propyl)piperidin-4-yl Ester] | < 5 nM | – | – | – | – | –
CCC(=O)O.O=C(Nc1ccccc1-c1ccccc1)OC1CCN(CCCN2CCN(CCCNCc3ccc(O)cc3)C2=O)CC1 [Example 2, Monopropionate Crystalline Salt of Biphenyl-2-ylcarbamic Acid 1-(3-{3-[3-(4-Hydroxybenzylamino)propyl]-2-oxoimidazolidin-1-yl}propyl)piperidin-4-yl Ester] | – | low hygroscopicity | 1.0% | 0.7% | 0.3% | good thermal stability
